{
  "source": "patent US20120289602A1",
  "about": "“PHARMACEUTICAL COMPOSITION FOR TREATING OR PREVENTING BURN INJURIES” (priority 2009, published 2012)",
  "format_in_all_cases": "in vivo",
  "key": {"[1]": {"test_system": "contact burn injury on the back of rats", "test": "Contact burn injury in rats: animals that died within 7 days", "settings": "within 7 days after burn injury, 10 mg/5 ml/kg intravenously, twice a day for 7 days, 7 animals in group", "experimental": "(§1) To confirm the therapeutic effect of 2-hydroxy-TTBA against burn injury, contact burn injury is induced for 30 seconds on the back of rats (on the both side of skin) using a brass comb preheated for 3 minutes in the boiling water (maintaining at 100° C.). After 5 minutes, 2-hydroxy-TTBA 10 mg/5 ml/kg were administered to intravenously for 5 minutes. Since then, twice-a-day administration (at an interval of 10˜12 hours) was sustained for 7 days on the same conditions. The same amount of saline without the compound was administered to the vehicle-treated group in the same manner. Groups of burn experiments were the same as below table 1.\nWhen analyzing the results, number of animals of the normal group for comparison, number of animals in each group, and the number of animals that died within 7 days after the burn injury were shown in above table 1. Two rats in the burn control group died at 5 and 7 days, respectively, after burn injury, but all of another experimental group survived."}, "[2]": {"test_system": "contact burn injury on the back of rats", "test": "Measurement of lactate dehydrogenase in serum through blood chemistry after burn injury", "settings": "10 mg/5 ml/kg intravenously twice a day, FIG. 1", "experimental": "as §1\nThe Measurement of Lactate Dehydrogenase in Serum Through Blood Chemistry\nLactate dehydrogenase (LDH) is an enzyme distributed to almost all the tissues and catalyzing reversible reactions between pyruvic acid and lactic acid.\nIt is known that serum LDH level is elevated when tissues and cells are destroyed. Thus, the amount of LDH was measured in serum samples from each group except hemolyzed samples that may interfere with test results."}, "[3]": {"test_system": "contact burn injury on the back of rats", "test": "Observation of skin appearance on the back after burn injury (zone of stasis)", "settings": "skin on the back 7 days after burn injury, FIG. 2", "experimental": "as §1\nFIG. 2 is photographs that observed skin on the back 7 days after burn injury. Full thickness burns were induced in the both sides of back of experimental rats using a preheated brass comb with 4 rectangular shapes of size 10×20 mm. At 2 hours after induction, 4 pale-colored or darkish zones of coagulation (or zones of tissue necrosis) and 3 zones of stasis (or zones of tissue injury) appeared on the both sides of back. […]\nTherefore, to evaluate the efficacy in this experiment, among the zone of stasis, the remaining 4 regions (a rectangular area indicated the dotted lines) except regions toward the head close to a medication vest among 6 areas appeared in a single rat were analyzed."}, "[4]": {"test_system": "contact burn injury on the back of rats", "test": "Histology of zone of stasis after burn injury (hematoxylin-eosin, cresyl violet, Masson's trichrom staining)", "experimental": "as §1\nFIG. 3 is the result comparing the state of the epithelial layer through hematoxylin-eosin staining of tissues according to the groups. […] Some cases that hyperplasia of epidermis thicker than normal epithelial layers occurred could be also observed.\nEschar formation and frequency of wound epidermis formation was measured by analyzing total 28 tissue areas per group (4 zones of stasis per rat, 7 rats per group). As a result, the wound switching frequency of approximately 93% occurred in the burn control group was decreased to about 18% and 4%, respectively, in the veheicle-treated and 2-hydroxy-TTBA-treated groups. Also, the rate of wound epidermis formation was increased by approximately 32% and 72%, respectively, in comparison with the burn control group. The result was shown in the below table 2 (histological appearance: Eschar Formation and frequency of wound epidermis formation).\nFIG. 4 was the photograph that observed the state of tissues of full-thickness skin through hematoxylin-eosin staining via 10× microscope.\nFIG. 5 is the photograph observed the live cells in the zone of stasis by cresyl violet staining via 10× microscope. In the burn control group and the vehicle-treated group, follicles were rarely observed and large amounts of inflammatory cells were observed throughout the full-thickness skin.\nFIG. 6 is the photograph that observed collagen of skin tissues and muscle fibers in the zone of stasis by Masson's trichrom staining. In the normal group, blue-stained collagen was evenly distributed throughout the dermis, and muscle fibers were stained red. In the burn control group, collagen was deposited irregularly below eschar, the level of staining was weak relative to the normal group. Almost of the muscle fibers were damaged and were not stained. In the vehicle-treated group, the amount of collagen was most abundantly observed relative to the other groups, even to a very high level compared to the normal control. In addition, the muscle fibers with damage were not stained, and significant amount of bleeding and infiltration of inflammatory cells were accompanied."}, "[5]": {"settings": "28 tissue areas per group (4 zones of stasis per rat, 7 rats), 7 days after burn"}, "[6]": {"settings": "zone of stasis, 7 days after burn, FIG. 4"}},
  "data": [
    {"smiles": "O=C(O)c1cc(NCc2c(F)c(F)c(C(F)(F)F)c(F)c2F)ccc1O", "note": "[2-hydroxy-TTBA, 2-Hydroxy-5-(2,3,5,6-tetrafluoro-4-trifluoromethyl-benzylamino)-benzoic acid]", "values": [
      {"measurement": "Number of dead animals", "setting": "[1]", "value": 0},
      {"measurement": "LDH value in serum compared to burn control group", "setting": "[2]", "value": "reduced significantly"},
      {"measurement": "Skin condition by the naked eye", "setting": "[3]", "value": "restored to such a good skin condition that hair growth can be observed by the naked eye"},
      {"measurement": "Formation of eschar such as scab (skin appearance)", "setting": "[3]; zone of stasis", "value": "occurred rarely"},
      {"measurement": "rate of wound epidermis formation, increase in comparison with the burn control group", "setting": "[4]; 28 tissue areas per group", "value": "~72", "unit": "%"},
      {"measurement": "Eschar formation (%)", "setting": "[4]; [5]", "value": 3.571, "unit": "%"},
      {"measurement": "Wound epidermis formation (%)", "setting": "[4]; [5]", "value": 71.429, "unit": "%"},
      {"measurement": "Eschar formation frequency", "setting": "[4]; 28 tissue areas per group, approximately 93% in burn control group", "value": "~4", "unit": "%"},
      {"measurement": "State of the epithelial layer, hematoxylin-eosin staining", "setting": "[4]; FIG. 3", "value": "wound epidermis formation was in progress"},
      {"measurement": "Inflammatory cells in the zone of stasis, cresyl violet staining", "setting": "[4]; FIG. 5", "value": "relatively few inflammatory cells were observed"},
      {"measurement": "Live cells in the zone of stasis, cresyl violet staining", "setting": "[4]; FIG. 5", "value": "live follicles and epithelia were observed"},
      {"measurement": "Infiltration of inflammatory cells in full-thickness skin, hematoxylin-eosin staining", "setting": "[4]; [6]", "value": "considerably inhibited except in the areas of muscle cells and subcutaneous tissues"},
      {"measurement": "Protection of skin structures in full-thickness skin, hematoxylin-eosin staining", "setting": "[4]; [6]", "value": "not only a wound epidermis formation but also protective effects even in the hair follicles, sebaceous glands and muscle layers appeared"}
    ]}
  ]
}
